# Experimental data reported in patent publication US6656497B2, “Liposomal vector for active-principle” (Lipogel, priority 1997, dated 2003).
# What was measured:
# [1] = Passage of orally administered free calcitonin across the intestinal barrier; type: in vivo; details: 330 IU administered orally
# Description: It is explained by the fact that during a massive administration of peptide such as calcitonin, a small percentage crosses the intestinal barrier (1%) without being denatured. In this case, 330 IU were administered, which corresponds to a lymphatic passage of 3.3 IU (passage from the intestinal lumen into the plasma, via the lymphatic canal pathway). However, the IV-route effect of calcitonin starts at 0.9 IU. It is thus normal to observe this effect of free calcitonin. The hypocalcaemia observed after oral administration of calcitonin decreases over time to return to the normal level after 90 min.
# [2] = massive oral administration of peptide; cited from earlier work
smiles,measurement,setting,value
"CC(C)C[C@H](NC(=O)[C@H](CCCCN)NC(=O)CNC(=O)[C@H](CC(C)C)NC(=O)[C@@H](NC(=O)[C@@H]1CSSC[C@H](N)C(=O)N[C@@H](CO)C(=O)N[C@@H](CC(N)=O)C(=O)N[C@@H](CC(C)C)C(=O)N[C@@H](CO)C(=O)N[C@@H]([C@@H](C)O)C(=O)N1)C(C)C)C(=O)N[C@@H](CO)C(=O)N[C@@H](CCC(N)=O)C(=O)N[C@@H](CCC(=O)O)C(=O)N[C@@H](CC(C)C)C(=O)N[C@@H](Cc1c[nH]cn1)C(=O)N[C@@H](CCCCN)C(=O)N[C@@H](CC(C)C)C(=O)N[C@@H](CCC(N)=O)C(=O)N[C@H](C(=O)N[C@@H](Cc1ccc(O)cc1)C(=O)N1CCC[C@H]1C(=O)N[C@@H](CCCNC(=N)N)C(=O)N[C@H](C(=O)N[C@@H](CC(N)=O)C(=O)N[C@H](C(=O)NCC(=O)N[C@@H](CO)C(=O)NCC(=O)N[C@H](C(=O)N1CCC[C@H]1C(N)=O)[C@@H](C)O)[C@@H](C)O)[C@@H](C)O)[C@@H](C)O [free calcitonin, salmon calcitonin]",lymphatic passage (intestinal lumen into plasma via lymphatic canal pathway),[1],3.3 IU
same,percentage crossing the intestinal barrier without being denatured,[2],1%
